Test results: US20050186230A1, “Elemene compositions containing liquid oil” (SD Pharmaceuticals, Inc., priority 2004, published 2005)
Like-named read-outs stand apart in the source and are kept apart here.

How the values were obtained:
[1] = system: murine Ehrlich ascites carcinoma; details: cited from earlier work
K562 leukemia cells = details: cited from earlier work
[2] = system: rat ascitic reticulum cell sarcoma; details: material contained beta-elemene 65%; cited from earlier work
[3] = system: brain tumors (neuroglioma), liver and esophageal cancers; details: 2 year clinical trial in China; cited from earlier work
[4] = system: promyelocytic leukemia HL 60 cells; details: cited from earlier work
[5] = background statement; cited from earlier work
[6] = system: peripheral blood leukocytes (PBL); details: cited from earlier work
[7] = system: human leukemia K562 cells; details: cited from earlier work
[8] = Solubility of elemenes in water; assay type: physicochemical; details: found by the inventor
[9] = system: erythroleukemia K562 cells; details: cited from earlier work
cerebral carcinoma = details: combination of the elemene and local chemotherapy; cited from earlier work

Molecule	anti-tumor activity ([1]; murine Ehrlich ascites carcinoma, material contained beta-elemene 65%)	side effects during treatment ([1]; murine and rat tumor models)	apoptosis of K562 leukemia cells (K562 leukemia cells)	anti-tumor activity [2]	clinical effect [3]	in vitro IC50 [4] [mg/L]	solubility in water [5]	in vitro IC50 [6] [mg/L]	apoptosis of K562 cells [7]	bcl-2 protein expression in K562 cells [7]	solubility in water [8]	in vitro IC50 [9] [mg/L]	patients reaching complete remission level (cerebral carcinoma) [%]
C=CC1(C)CCC(C(=C)C)CC1C(=C)C (stereo not drawn) [beta-elemene, 1-methyl-1-vinyl-2,4-diisoprotenyl-cyclohexane]	marked anti-tumor activity	Diarrhea and weight loss	induces apoptosis	marked anti-tumor activity									
elemene					beneficial effects on brain tumors (neuroglioma), liver and esophageal cancers	27.5	insoluble in water	254.3	induces apoptosis	down-regulation of bcl-2 protein	some solubility in water	81	27
